pIC50: −log10 of the molar value. The source made the active and inactive calls. No cut-off for these calls is given here.
Tests used:
[1] = Toxicity in ICR mouse assessed as drug tolerance at 80 mg/kg, po measured after 7 days; type: organism-based; details: in vivo, 168 h, time 7 day
[2] = molecular target: Fibroblast growth factor receptor 2 (Homo sapiens, UniProt P21802, V564I)
NCI-H1581 [3] = experiment: Antitumor activity against human NCI-H1581 cells xenografted in BALB/c nude mouse assessed as induction of apoptosis in tumor by H and E staining based analysis; type: functional, cell-based
Mus musculus = experiment: In vivo inhibition of FGFR1 signaling pathway in BALB/c nude mouse xenografted with human NCI-H1581 cells assessed as reduction in FGFR1 phosphorylation level in tumor by Western blotting analysis; type: functional, organism-based
[4] = Antitumor activity against rat L6 cells harboring FGFR V561M mutant xenografted in BALB/c nude mouse assessed as tumor growth inhibition at 60 mg/kg relative to control; type: functional; details: read-out: TGI
[5] = molecular target: Fibroblast growth factor receptor 3 (Homo sapiens, UniProt P22607); experiment: Binding affinity to FGFR3 (unknown origin) at 0.1 uM
[6] = Toxicity in ICR mouse assessed as change in spleen weight at 80 mg/kg, po measured after 7 days; type: organism-based; details: in vivo, 168 h, time 7 day
[7] = molecular target: T1, Fibroblast growth factor receptor 2 (Homo sapiens, UniProt P21802); experiment: Binding affinity to FGFR2 (unknown origin) at 0.1 uM
L6 [8] = experiment: Antitumor activity against rat L6 cells harboring FGFR1 V561M mutant xenografted in BALB/c nude mouse assessed as induction of apoptosis in tumor at 30 to 60 mg/kg by H and E staining based analysis; type: functional, organism-based; details: dose 30-60 mg/kg
A549 [9] = experiment: cells; details: Homo sapiens, A549, 48 h
Description: Antiproliferative activity against human A549 cells assessed as inhibition of cell proliferation incubated for 48 hrs by MTT assay

[10] = Toxicity in ICR mouse assessed as change in kidney weight at 80 mg/kg, po measured after 7 days; type: organism-based; details: in vivo, 168 h, time 7 day
[11] = Half life in male Sprague-Dawley rat at 2 mg/kg, iv by UHPLC-MS/MS analysis; type: ADME, organism-based; details: in vivo
NCI-H1581 [12] = experiment: Inhibition of colony formation in human NCI-H1581 cells incubated for 48 hrs by crystal violet staining based assay; type: functional, cell-based; details: dose 10-40 nM
[13] = Half life in male Sprague-Dawley rat at 10 mg/kg, po by UHPLC-MS/MS analysis; type: ADME, organism-based; details: in vivo
A549 [14] = experiment: Inhibition of DNA replication in human A549 cells incubated for 1 hrs by EdU staining based analysis; type: functional, cell-based; details: dose 10-40 µM
[15] = molecular target: T1, Fibroblast growth factor receptor 2; experiment: Inhibition of wild type FGFR2 (unknown origin) by caliper mobility shift assay
Target sequence in this assay (P21802 whole entry): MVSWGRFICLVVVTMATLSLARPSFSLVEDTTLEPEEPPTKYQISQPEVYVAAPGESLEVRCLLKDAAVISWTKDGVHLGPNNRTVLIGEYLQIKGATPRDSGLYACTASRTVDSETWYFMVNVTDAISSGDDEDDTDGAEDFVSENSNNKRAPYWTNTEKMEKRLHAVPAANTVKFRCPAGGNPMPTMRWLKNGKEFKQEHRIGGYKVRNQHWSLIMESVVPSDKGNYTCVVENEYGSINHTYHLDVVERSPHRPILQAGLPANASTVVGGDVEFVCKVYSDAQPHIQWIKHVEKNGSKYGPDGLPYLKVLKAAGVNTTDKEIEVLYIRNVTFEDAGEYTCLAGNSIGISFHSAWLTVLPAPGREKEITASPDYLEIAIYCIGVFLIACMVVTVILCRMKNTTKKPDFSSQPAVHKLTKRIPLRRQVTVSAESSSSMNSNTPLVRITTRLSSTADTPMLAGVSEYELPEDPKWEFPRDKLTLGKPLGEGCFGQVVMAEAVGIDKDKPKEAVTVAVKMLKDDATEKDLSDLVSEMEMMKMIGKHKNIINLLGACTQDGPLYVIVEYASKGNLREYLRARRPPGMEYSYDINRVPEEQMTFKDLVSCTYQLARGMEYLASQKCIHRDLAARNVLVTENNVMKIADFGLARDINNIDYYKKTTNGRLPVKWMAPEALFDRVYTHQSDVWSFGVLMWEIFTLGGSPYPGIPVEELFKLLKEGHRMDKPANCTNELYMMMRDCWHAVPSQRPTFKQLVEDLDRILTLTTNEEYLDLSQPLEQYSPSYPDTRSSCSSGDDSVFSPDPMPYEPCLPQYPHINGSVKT

[16] = Toxicity in BALB/c nude mouse xenografted with human NCI-H1581 cells assessed as change in AST level at 60 mg/kg; type: organism-based; details: in vivo
[17] = Toxicity in ICR mouse assessed as histopathological changes in kidney at 80 mg/kg, po by H and E staining based analysis; type: organism-based; details: in vivo
[18] = Toxicity in ICR mouse assessed as change in body weight at 80 mg/kg, po measured after 7 days; type: organism-based; details: in vivo, 168 h, time 7 day
[19] = Tmax in male Sprague-Dawley rat at 2 mg/kg, iv by UHPLC-MS/MS analysis; type: ADME, organism-based; details: in vivo
NCI-H1581 [20] = experiment: cells; details: Homo sapiens, NCI-H1581, 48 h
Description: Antiproliferative activity against human NCI-H1581 cells assessed as inhibition of cell proliferation incubated for 48 hrs by MTT assay

NCI-H1581 [21] = experiment: Inhibition of colony formation in human NCI-H1581 cells at 10 nM incubated for 48 hrs by crystal violet staining based assay; type: functional, cell-based
[22] = Cmax in male Sprague-Dawley rat at 2 mg/kg, iv by UHPLC-MS/MS analysis; type: ADME, organism-based; details: in vivo
NCI-H1581 [23] = experiment: Inhibition of cell migration in human NCI-H1581 cells incubated upto 72 hrs by wound healing assay; type: functional, cell-based; details: dose 10-40 µM
[24] = AUC(0 to t) in male Sprague-Dawley rat at 10 mg/kg, po by UHPLC-MS/MS analysis; type: ADME, organism-based; details: in vivo
[25] = Tmax in male Sprague-Dawley rat at 10 mg/kg, po by UHPLC-MS/MS analysis; type: ADME, organism-based; details: in vivo
[26] = molecular target: Fibroblast growth factor receptor 4 (Homo sapiens, UniProt P22455); experiment: Inhibition of wild type FGFR4 (unknown origin) by caliper mobility shift assay
[27] = Toxicity in BALB/c nude mouse xenografted with human NCI-H1581 cells assessed as change in liver weight and measured after 14 days; details: 336 h, time 14 day
L6 [28] = experiment: Antitumor activity against rat L6 cells harboring FGFR1 V561M mutant xenografted in BALB/c nude mouse assessed as suppression of tumor cell proliferation at 30 to 60 mg/kg by Ki-67 staining based analysis; type: functional, organism-based; details: dose 30-60 mg/kg
NCI-H1581 [29] = experiment: Inhibition of cell migration in human NCI-H1581 cells at 40 nM incubated upto 72 hrs by wound healing assay (reference value: 80%); type: functional
[30] = molecular target: Platelet-derived growth factor receptor alpha (Homo sapiens) (UniProt P16234); experiment: Inhibition of PDGFRalpha (unknown origin)
[31] = Toxicity in ICR mouse assessed as histopathological changes in liver at 80 mg/kg, po by H and E staining based analysis; type: organism-based; details: in vivo
[32] = AUC(0 to infinity) in male Sprague-Dawley rat at 2 mg/kg, iv by UHPLC-MS/MS analysis; type: ADME, organism-based; details: in vivo
[33] = molecular target: Vascular endothelial growth factor receptor 2 (Homo sapiens) (UniProt P35968); experiment: Inhibition of VEGFR2 (unknown origin)
[34] = Toxicity in ICR mouse assessed as change in lung weight at 80 mg/kg, po measured after 7 days; type: organism-based; details: in vivo, 168 h, time 7 day
NCI-H1581 [35] = experiment: Inhibition of AKT (unknown origin) phosphorylation in human NCI-H1581 cells at 10 to 40 nM by Western blotting analysis; type: cell-based; details: dose 10-40 nM
NCI-H1581 [36] = experiment: Inhibition of cell adhesion in human NCI-H1581 cells by crystal violet staining based analysis; type: functional; details: dose 10-40 nM
NCI-H1581 [37] = experiment: Inhibition of AKT (unknown origin) phosphorylation in human NCI-H1581 cells at 40 nM by Western blotting analysis; type: cell-based

Sequence of Platelet-derived growth factor receptor alpha (Homo sapiens) (P16234 whole entry): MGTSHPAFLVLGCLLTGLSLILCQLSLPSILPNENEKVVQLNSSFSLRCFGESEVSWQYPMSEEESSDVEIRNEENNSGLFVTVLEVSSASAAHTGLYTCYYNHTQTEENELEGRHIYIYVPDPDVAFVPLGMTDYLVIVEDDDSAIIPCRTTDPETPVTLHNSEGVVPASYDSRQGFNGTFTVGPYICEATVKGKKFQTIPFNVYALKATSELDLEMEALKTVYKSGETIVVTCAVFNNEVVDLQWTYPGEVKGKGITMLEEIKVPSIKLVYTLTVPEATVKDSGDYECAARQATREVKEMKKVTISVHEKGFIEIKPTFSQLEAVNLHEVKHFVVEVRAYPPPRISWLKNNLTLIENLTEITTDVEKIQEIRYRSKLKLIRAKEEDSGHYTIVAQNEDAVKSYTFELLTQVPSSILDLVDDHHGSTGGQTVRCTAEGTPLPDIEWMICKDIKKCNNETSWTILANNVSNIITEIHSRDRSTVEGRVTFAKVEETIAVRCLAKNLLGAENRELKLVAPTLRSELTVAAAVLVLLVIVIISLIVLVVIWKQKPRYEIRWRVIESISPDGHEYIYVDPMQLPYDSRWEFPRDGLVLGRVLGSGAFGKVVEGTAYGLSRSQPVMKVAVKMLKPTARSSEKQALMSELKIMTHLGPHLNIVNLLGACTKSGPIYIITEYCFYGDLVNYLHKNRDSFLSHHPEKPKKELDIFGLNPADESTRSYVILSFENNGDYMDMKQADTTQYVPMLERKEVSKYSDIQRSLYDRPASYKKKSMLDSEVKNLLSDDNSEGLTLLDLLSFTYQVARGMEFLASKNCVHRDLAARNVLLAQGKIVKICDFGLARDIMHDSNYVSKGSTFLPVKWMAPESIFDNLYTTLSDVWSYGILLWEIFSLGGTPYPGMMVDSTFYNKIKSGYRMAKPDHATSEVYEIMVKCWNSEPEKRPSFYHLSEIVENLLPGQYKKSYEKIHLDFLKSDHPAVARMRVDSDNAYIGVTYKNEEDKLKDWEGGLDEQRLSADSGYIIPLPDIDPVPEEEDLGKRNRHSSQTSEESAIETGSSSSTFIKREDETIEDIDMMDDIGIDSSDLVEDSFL
Sequence of Fibroblast growth factor receptor 3 (P22607 23-806 limits assumed): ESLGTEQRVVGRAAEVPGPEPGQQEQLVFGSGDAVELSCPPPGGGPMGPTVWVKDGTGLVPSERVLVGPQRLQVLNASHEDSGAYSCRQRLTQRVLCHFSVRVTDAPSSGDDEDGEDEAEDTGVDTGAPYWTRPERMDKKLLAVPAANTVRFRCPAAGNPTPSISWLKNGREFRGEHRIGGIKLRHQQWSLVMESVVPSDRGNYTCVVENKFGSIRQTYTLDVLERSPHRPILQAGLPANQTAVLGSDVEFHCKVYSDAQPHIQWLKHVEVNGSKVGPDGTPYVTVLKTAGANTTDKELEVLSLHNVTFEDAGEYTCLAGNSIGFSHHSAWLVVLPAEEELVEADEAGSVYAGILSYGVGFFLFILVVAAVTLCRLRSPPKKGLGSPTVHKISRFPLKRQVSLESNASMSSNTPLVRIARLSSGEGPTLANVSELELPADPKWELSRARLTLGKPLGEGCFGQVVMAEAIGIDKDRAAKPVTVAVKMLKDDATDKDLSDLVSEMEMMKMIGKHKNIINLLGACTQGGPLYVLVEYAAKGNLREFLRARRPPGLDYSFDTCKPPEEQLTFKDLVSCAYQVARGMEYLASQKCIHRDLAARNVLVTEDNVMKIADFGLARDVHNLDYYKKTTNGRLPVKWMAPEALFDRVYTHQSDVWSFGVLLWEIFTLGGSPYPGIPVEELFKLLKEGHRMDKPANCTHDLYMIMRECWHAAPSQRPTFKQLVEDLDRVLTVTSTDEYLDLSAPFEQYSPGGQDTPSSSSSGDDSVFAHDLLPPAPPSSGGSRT
Sequence of Vascular endothelial growth factor receptor 2 (Homo sapiens) (P35968 whole entry): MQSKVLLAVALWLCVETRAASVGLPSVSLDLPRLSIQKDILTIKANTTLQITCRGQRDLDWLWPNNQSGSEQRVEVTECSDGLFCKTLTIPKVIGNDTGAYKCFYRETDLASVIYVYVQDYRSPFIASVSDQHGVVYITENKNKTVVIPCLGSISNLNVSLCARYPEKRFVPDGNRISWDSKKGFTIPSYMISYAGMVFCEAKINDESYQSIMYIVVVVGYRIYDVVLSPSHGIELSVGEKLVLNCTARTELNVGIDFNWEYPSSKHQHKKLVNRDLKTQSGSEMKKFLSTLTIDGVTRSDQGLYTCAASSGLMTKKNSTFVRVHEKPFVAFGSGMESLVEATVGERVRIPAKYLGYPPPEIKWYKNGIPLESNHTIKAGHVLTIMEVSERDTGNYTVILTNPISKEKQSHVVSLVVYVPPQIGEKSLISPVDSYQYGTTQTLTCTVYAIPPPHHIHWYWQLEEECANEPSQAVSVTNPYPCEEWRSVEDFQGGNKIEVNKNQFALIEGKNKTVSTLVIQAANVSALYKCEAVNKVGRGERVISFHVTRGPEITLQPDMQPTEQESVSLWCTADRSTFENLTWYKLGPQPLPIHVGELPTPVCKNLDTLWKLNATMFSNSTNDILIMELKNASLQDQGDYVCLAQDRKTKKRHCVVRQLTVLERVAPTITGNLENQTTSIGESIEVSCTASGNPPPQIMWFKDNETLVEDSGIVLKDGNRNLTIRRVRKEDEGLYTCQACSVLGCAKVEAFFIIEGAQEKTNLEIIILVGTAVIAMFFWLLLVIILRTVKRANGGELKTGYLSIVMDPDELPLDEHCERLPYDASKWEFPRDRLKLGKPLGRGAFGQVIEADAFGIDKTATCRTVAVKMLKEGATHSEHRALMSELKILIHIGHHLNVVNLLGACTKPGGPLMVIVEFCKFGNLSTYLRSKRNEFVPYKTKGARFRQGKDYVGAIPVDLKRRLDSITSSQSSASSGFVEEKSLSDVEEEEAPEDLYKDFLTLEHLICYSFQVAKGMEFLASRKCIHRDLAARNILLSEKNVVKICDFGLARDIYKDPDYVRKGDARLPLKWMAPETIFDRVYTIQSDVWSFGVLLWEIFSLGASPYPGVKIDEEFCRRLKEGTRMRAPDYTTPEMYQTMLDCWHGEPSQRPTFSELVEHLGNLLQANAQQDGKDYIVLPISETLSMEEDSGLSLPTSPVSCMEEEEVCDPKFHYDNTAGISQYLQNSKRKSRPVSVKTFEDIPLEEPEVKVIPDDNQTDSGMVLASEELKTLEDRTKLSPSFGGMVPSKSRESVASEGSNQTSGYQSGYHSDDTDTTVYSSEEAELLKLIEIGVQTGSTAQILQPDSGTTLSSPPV
Sequence of Fibroblast growth factor receptor 4 (P22455 whole entry): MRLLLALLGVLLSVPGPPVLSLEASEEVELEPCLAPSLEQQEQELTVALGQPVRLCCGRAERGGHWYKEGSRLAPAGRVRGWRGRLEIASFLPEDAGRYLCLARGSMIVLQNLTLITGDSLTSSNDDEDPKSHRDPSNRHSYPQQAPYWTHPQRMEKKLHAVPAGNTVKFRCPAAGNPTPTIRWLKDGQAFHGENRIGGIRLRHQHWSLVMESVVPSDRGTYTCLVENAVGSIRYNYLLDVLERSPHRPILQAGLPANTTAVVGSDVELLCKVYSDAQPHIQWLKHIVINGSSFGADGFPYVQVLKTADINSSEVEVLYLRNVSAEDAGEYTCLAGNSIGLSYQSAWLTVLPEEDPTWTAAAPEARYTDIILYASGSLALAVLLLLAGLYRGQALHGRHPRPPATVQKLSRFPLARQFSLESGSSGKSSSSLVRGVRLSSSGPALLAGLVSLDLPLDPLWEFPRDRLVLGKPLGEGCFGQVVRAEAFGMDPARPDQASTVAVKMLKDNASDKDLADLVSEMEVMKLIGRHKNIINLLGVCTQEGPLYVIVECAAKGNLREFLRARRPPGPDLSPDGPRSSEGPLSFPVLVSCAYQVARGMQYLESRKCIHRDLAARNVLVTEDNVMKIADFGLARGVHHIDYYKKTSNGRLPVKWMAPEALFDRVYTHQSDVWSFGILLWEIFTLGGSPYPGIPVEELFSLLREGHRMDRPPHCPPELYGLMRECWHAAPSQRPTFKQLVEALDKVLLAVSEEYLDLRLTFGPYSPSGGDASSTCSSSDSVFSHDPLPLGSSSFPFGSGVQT

## C=CC(=O)Nc1ccc(Nc2nc(Nc3ccc(N4C[C@@H](C)N[C@@H](C)C4)c(OC)c3)ncc2Cl)cc1Cl
[1]
  Activity: Non-toxic
[2]
  pIC50: 7.52
NCI-H1581 [3]
  Activity: Active
Mus musculus
  inhibition: Active
[4]
  inhibition in vivo at 60 mg/kg: 69%
[5]
  Activity: Not active; Reduced Affinities Observed
[6]
  Activity: Non-toxic
[7]
  Activity: Not active; Reduced Affinities Observed
L6 [8]
  Activity: Active
A549 [9]
  pIC50: 6.42
[10]
  Activity: Non-toxic
[11]
  half-life: 3.55 h
NCI-H1581 [12]
  inhibition: Dose-dependent-effect
[13]
  half-life: 5.18 h
A549 [14]
  inhibition: Dose-dependent-effect
[15]
  pIC50: 7.81
[16]
  Activity: Non-toxic
[17]
  Activity: Non-toxic
[18]
  Activity: Non-toxic
[19]
  Tmax: 4.8 min
NCI-H1581 [20]
  pIC50: 7.74
NCI-H1581 [21]
  inhibition: Active; Stronger Inhibition Observed
[22]
  Cmax: 816 ng/mL
NCI-H1581 [23]
  inhibition: Dose-dependent-effect
[24]
  AUC(0-t): 7800 ng·h/mL
[25]
  Tmax: 0.5 h
[26]
  pIC50: 6.31
[27]
  Activity: Non-toxic
L6 [28]
  Activity: Active
NCI-H1581 [29]
  inhibition at 0.04 µM: 40%
[30]
  inhibition: Not active; Moderate To Weak Inhibitory Activity Observed
[31]
  Activity: Non-toxic
[32]
  AUC(0-inf): 5400 ng·h/mL
[33]
  inhibition: Not active; Moderate To Weak Inhibitory Activity Observed
[34]
  Activity: Non-toxic
NCI-H1581 [35]
  inhibition: Active
NCI-H1581 [36]
  inhibition: Dose-dependent-effect
NCI-H1581 [37]
  inhibition: Active; Greater Inhibition Observed Compared To Infigratinib

Source: ChEMBL document CHEMBL6103630, “Discovery of Novel 2,4,5-Trisubstituted Pyrimidine Derivatives as Potent and Selective FGFR Inhibitors against Gatekeeper Mutants for the Treatment of NSCLC” (J Med Chem, 2025)
